Experimental data reported in article PMC6268294, “Synthesis of Chalcones with Anticancer Activities” (Molecules, 2012).
Converted amounts (≈) assume the structure as drawn. Where two headings read alike, the source gives them in different places.

Legend:
[1] = system: human lung adenocarcinoma cell line A549; test: MTT cell viability assay, A549; assay type: cell-based; settings: 24 h treatment
Protocol: (§1) A549, PC3, MCF-7, HT-29, WRL68 and MCF-7 cells were obtained from the ATTC (Rockville, MD, USA) and grown in RPMI-1640 medium, 10% fetal bovine serum (FBS) and 1% pen-strep, in humidified conditions at 5% CO2 and 37 °C. The different cell lines mentioned above were used to determine the inhibitory effects of compounds on cell growth using the MTT assay. This colorimetric assay is based on the conversion of the yellow tetrazolium bromide (MTT) to a purple formazan derivative by mitochondrial succinate dehydrogenase in viable cells. Cells were seeded in 96-well plate and incubated for 24 h at 37 °C with 5% CO2 saturation. After incubation, the cells were treated with different concentration of compounds and incubated for another 24 h. After 24 h of drug treatment, 20 µL of MTT solution at 5 mg/mL was added and incubated for 4 h. Dimethyl sulfoxide (DMSO) in volume of 100 µL is added into each well to dissolve the purple formazan formed. The colorimetric assay is measured and recorded at absorbance of 570 nm.

[2] = system: human prostate cancer cell line PC3; test: MTT cell viability assay, PC3; assay type: cell-based; settings: 24 h treatment
Protocol: as §1

[3] = system: human breast adenocarcinoma cell line MCF-7; test: MTT cell viability assay, MCF-7; assay type: cell-based; settings: MCF7, 24 h treatment
Protocol: as §1

[4] = system: human adenocarcinoma cell line HT-29 (colorectal cancer); test: MTT cell viability assay, HT-29; assay type: cell-based; settings: 24 h treatment
Protocol: as §1

[5] = system: human normal liver cell line WRL-68; test: MTT cell viability assay, WRL68; assay type: cell-based; settings: 24 h treatment
Protocol: as §1

[6] = system: MCF-7 (breast), A549 (lung), PC3 (prostate), HT-29 (colorectal) and WRL68 (liver); test: MTT assay, summary over all five cell lines; assay type: cell-based, human; settings: for IC50: Homo sapiens
Protocol: as §1

MCF-7 cells = test: Multiparametric high content screening (HCS) cytotoxicity/apoptosis assay; assay type: cell-based, human
Protocol: The toxic effects of Cpd 1, 5, 23 and 25 at different doses on MCF-7 cells were assayed using the high content screening (HCS) KineticScan Reader (Cellomics Inc, Pittsburgh, PA, USA) with the Multiparameter Cytotoxicity Kit 3. The kit contains four fluorescent dyes, i.e., blue fluorescent Hoechst 33342, membrane permeability, mitochondrial membrane potential, and cytochrome c dyes. They respectively detect changes in nuclear morphology (nuclear condensation), membrane permeability, mitochondrial membrane potential and expression of cytochrome c. The multiparametric apoptosis kit quantifies three fundamental parameters related to the process of apoptosis, i.e., nuclear condensation detected by the blue fluorescent nuclear dye, Hoechst 33342, cell permeability detected by permeability dye, mitochondrial damage detected by mitochondrial membrane potential dye and cytochrome c release by DyLight 649 Conjugates. Following treatment with different concentrations of compounds 1, 23, 25 and 5 as mentioned before, the fixation and staining for imaging analysis of the MCF-7 cells were performed according to the manufacturer’s instructions. […] Plates were analyzed using a Thermo Scientific ArrayScanHVTI HCS Reader (Cellomics Inc, Pittsburgh, PA, USA). This is a computerized automated fluorescence imaging microscope that automatically identifies stained cells and measures the intensity and distribution of fluorescence in individual cells. Images for each fluoroprobe were acquired at different channels using suitable filters with 20x objective at fixed exposure time. The Cell Health Profiling BioApplication software was used for image acquisitions and analysis. For each well, at least 25 fields, corresponding to at least 500 cells were automatically acquired and analyzed. All experiments were performed in triplicates. Cell average intensity (Mean) under the modified object mask within selected range in each channel was used as assay indicator, and reported as average fluorescence intensity.

caspase-8 in MCF-7 cells = test: Caspase-Glo-8 activity; assay type: cell-based, human; settings: MCF-7, 24 h, highest concentrations (6 µg/mL; 25: 4 µg/mL); control printed 50892 RLU; p < 0.05
Protocol: Due to the observation of significant cytotoxicity of selected compounds towards MCF-7 cells, the following analyses were done on them only. Cells were treated with compound 1 (1A- 3 µg/mL; 1B- 6 µg/mL), 23 (23A- 3 µg/mL; 23B- 6 µg/mL), 25 (25A- 2 µg/mL; 25B- 4 µg/mL) and 5 (5A- 3 µg/mL; 5B- 6 µg/mL).
Activity of cellular caspases was measured using the Caspase-Glo-9, Caspase-Glo-3/7 and Caspase-Glo-8 assay reagents (Promega), according to the manufacturer's instructions. The assays provide a luminogenic caspase-3/caspase-7 or caspase-8 or caspase-9 substrate, respectively, in a buffer system optimized for caspase activity measurement in cell lysates. The luciferase signal generated is proportional to the amount of caspase activity present. MCF-7 cells have no caspase-3 activity due to functional deletion of the CASP-3 gene. Therefore, the activity measured in this test is that of caspase-7. Briefly, cells were plated in opaque 96-well plates in triplicate and treated with […]. After 24 h treatment with compounds 1, 23, 25 and 5 as mentioned before, the assay reagents were added to the plates at room temperature and incubated for 60 min, and the luminescence was measured using a plate reader. All assays were done in triplicate, and means ± SD were calculated for each condition.

[7] = MCF-7, compounds 2-6 µg/mL, tamoxifen 0.04 µg/mL, vs control

Structure (SMILES)	IC50 [1] [µg/mL]	IC50 [2] [µg/mL]	IC50 [3] [µg/mL]	IC50 [4] [µg/mL]	melting point [°C]	IC50 ([6]; all cell lines except for the A549 cell line, MTT, read-out: IC50 in all cell lines except A549) [µg/mL]	IC50 ([6]; all five cell lines, MTT, read-out: IC50 in all cell lines) [µg/mL]	IC50 [5] [µg/mL]	cytotoxic effect in words [6]	cytotoxic effect in words ([6]; all cell lines, MTT)	cell (membrane) permeability (MCF-7 cells; [7])	cytochrome c release (MCF-7 cells; [7])	mitochondrial membrane potential (MCF-7 cells; [7])	total nuclear intensity (Hoechst 33342 nuclear chromatin staining) (MCF-7 cells; [7])	cell loss (MCF-7 cells; MCF-7, compounds 2-6 µg/mL, data not shown)	apoptosis in MCF-7 cells (MCF-7 cells; shown by multiparameter cytotoxicity assay and caspase-3/7, -8, -9 activities, p < 0.05)	caspase-8 activity at highest concentration (caspase-8 in MCF-7 cells)
COc1ccc(C(=O)/C=C/c2ccc(N(C)C)cc2)cc1 [Compound 20, 3-(4-Dimethylaminophenyl)-1-(4-methoxy-phenyl)-propenone]	78.8 ± 4.4 (≈ 280 µM)	> 100	> 100	> 100				> 100	low cytotoxic effects								
Cc1cccc(/C=C/C(=O)c2ccccc2)c1 [Compound 9, 1-Phenyl-3-m-tolylpropenone]	24.7 ± 2 (≈ 111 µM)	9.4 ± 1.9 (≈ 42.3 µM)	9.34 ± 0.56 (≈ 42 µM)	19 ± 1.5 (≈ 85.3 µM)	68 to 70			9.78 ± 1.01 (≈ 44 µM)									
COc1ccc(C(=O)/C=C/c2cccc(C)c2)cc1 [Compound 12, 1-(4-Methoxyphenyl)-3-m-tolylpropenone]	31.8 ± 1.5 (≈ 126 µM)	9.87 ± 0.71 (≈ 39.1 µM)	9.53 ± 1.99 (≈ 37.8 µM)	15.8 ± 2.1 (≈ 62.5 µM)	74 to 75	< 20		11.1 ± 1.8 (≈ 44.1 µM)									
CN(C)c1ccc(/C=C/C(=O)c2ccccc2)cc1 [Compound 17, 3-(4-Dimethylaminophenyl)-1-phenyl-propenone]	> 100	> 100	99.3 ± 6.16 (≈ 395 µM)	64.3 ± 5.02 (≈ 256 µM)				> 100									
O=C(/C=C/c1ccccc1Cl)c1ccc(O)cc1 [Compound 6, 3-(2-Chlorophenyl)-(4-hydroxyphenyl)-propenone]	25.2 ± 1.21 (≈ 97.5 µM)	11 ± 1.8 (≈ 42.5 µM)	10 ± 1.4 (≈ 38.7 µM)	15.5 (≈ 60 µM)				13.2 ± 1.3 (≈ 51.1 µM)									
COc1ccc(/C=C/C(=O)c2ccc(OC)cc2)cc1 [Compound 16, 1,3-Bis-(4-Methoxyphenyl)-propenone]	> 100	> 100	41.4 ± 1.91 (≈ 154 µM)	67.1 ± 4.1 (≈ 250 µM)				60.8 ± 4.22 (≈ 227 µM)									
O=C(/C=C/c1cccc(Cl)c1)c1ccccc1 [Compound 25, 3-(3-Chlorophenyl)-1-phenylpropenone]	14.5 ± 0.2 (≈ 59.7 µM)	6.94 ± 0.61 (≈ 28.6 µM)	5.25 ± 0.67 (≈ 21.6 µM)	7.77 ± 1.1 (≈ 32 µM)			< 20	7.72 ± 1.6 (≈ 31.8 µM)	high cytotoxicity		increased cell permeability	cytochrome c release from mitochondria	loss of mitochondrial membrane potential	increased total nuclear intensity	statistically significant cell loss	capable in eliciting apoptosis	18,356 RLU

Further lines, with some results ahead:

IC50 [1] [µg/mL]	IC50 [2] [µg/mL]	IC50 [3] [µg/mL]	IC50 [4] [µg/mL]	melting point [°C]	IC50 ([6]; all cell lines except for the A549 cell line, MTT, read-out: IC50 in all cell lines except A549) [µg/mL]	IC50 ([6]; all five cell lines, MTT, read-out: IC50 in all cell lines) [µg/mL]	Structure (SMILES)	IC50 [5] [µg/mL]	cytotoxic effect in words [6]	cytotoxic effect in words ([6]; all cell lines, MTT)	cell (membrane) permeability (MCF-7 cells; [7])	cytochrome c release (MCF-7 cells; [7])	mitochondrial membrane potential (MCF-7 cells; [7])	total nuclear intensity (Hoechst 33342 nuclear chromatin staining) (MCF-7 cells; [7])	cell loss (MCF-7 cells; MCF-7, compounds 2-6 µg/mL, data not shown)	apoptosis in MCF-7 cells (MCF-7 cells; shown by multiparameter cytotoxicity assay and caspase-3/7, -8, -9 activities, p < 0.05)	caspase-8 activity at highest concentration (caspase-8 in MCF-7 cells)
> 100	43.3 ± 4.01 (≈ 171 µM)	32.4 ± 1.88 (≈ 128 µM)	29.6 ± 2.8 (≈ 117 µM)				COc1ccc(/C=C/C(=O)c2ccc(C)cc2)cc1 [Compound 15, 3-(4-Methoxyphenyl)-1-p-tolylpropenone]	50.9 ± 3.51 (≈ 202 µM)									
> 100	> 100	> 100	> 100				O=C(/C=C/c1ccccc1)c1ccc(O)cc1 [Compound 2, 1-(4-Hydroxyphenyl)-3-phenylpropenone]	> 100		low cytotoxic effects							
36.6 ± 1.76 (≈ 165 µM)	17.3 ± 1.1 (≈ 77.8 µM)	13.6 ± 1.01 (≈ 61.3 µM)	19.1 ± 1 (≈ 85.9 µM)				Cc1ccc(C(=O)/C=C/c2ccccc2)cc1 [Compound 3, 3-Phenyl-1-p-tolylpropenone]	21.3 ± 3.01 (≈ 96 µM)									
> 100	> 100	> 100	> 100	287 to 289			O=C(/C=C/c1ccccc1O)c1ccc(O)cc1 [Compound 22, 3-(2-Hydroxyphenyl)-1-(4-hydroxyphenyl)-propenone]	> 100	low cytotoxic effects								
> 100	> 100	> 100	> 100	50 to 51			Cc1ccc(C(=O)/C=C/c2ccccc2Cl)cc1 [Compound 7, 3-(2-Chlorophenyl)-1-P-tolylpropenone]	> 100	low cytotoxic effects								
